From patent publication US12318477B2, “Injectable and inhalable formulations” (CYBIN UK LTD, priority 2021, dated 2025)
Marks after values point to notes of the source that are not given here.

How the values were obtained:
[1] = system: human brain activity; conditions: human volunteers; cited from earlier work
[2] = Solubility of 20 mg/mL DMT fumarate in Britton-Robinson buffer at varied pH
[3] = pH-stability in 40 mM Britton-Robinson buffer: pH measurement; type: physicochemical; conditions: for pH: Day 17 (10 days storage at 40° C. followed by 7 days at 50° C.)
Text: On preparation of each formulation, there was a drop in pH in the range of 0.14 units (pH 4 formulation) to 1.29 units (pH 9 formulation) this being due to the acidic nature of the drug substance.

[4] = pH-stability in 40 mM Britton-Robinson buffer: related substances; type: physicochemical
[5] = pH-stability in 40 mM Britton-Robinson buffer: content (assay) by HPLC
[6] = In vivo pharmacokinetic (PK) profile following intramuscular (IM) dosing in rats; conditions: rat; for plasma levels at 30 mins compared with undeuterated DMT: […] (as fumarate) IM dose; for Cmax compared with DMT (SPL026): following IM dosing, p=0.005
[7] = according to the Human Metabolome Database (HMDB); cited from earlier work
[8] = pH-solubility in 0.5M Britton Robinson buffer at 25° C.; type: physicochemical; conditions: aqueous buffer, thermodynamic from solid, pH between about 4 and about 6
Protocol: Prior to adding N,N-dimethyltryptamine, a quantity of NaOH was added to the BR buffer as required to ensure the required pH. The total volume of BR buffer plus required amount of NaOH was 5 ml for each pH tested (pH 4, 5, 6, 7, 8, 9 & 10).

[9] = nominal pH 4.0, Day 17 (10 days storage at 40° C. followed by 7 days at 50° C.)
[10] = nominal pH 5.0, Day 17 (10 days storage at 40° C. followed by 7 days at 50° C.)
[11] = nominal pH 6.0, Day 17 (10 days storage at 40° C. followed by 7 days at 50° C.)
[12] = nominal pH 6.5, Day 17 (10 days storage at 40° C. followed by 7 days at 50° C.)
[13] = nominal pH 7.0, Day 17 (10 days storage at 40° C. followed by 7 days at 50° C.)
[14] = nominal pH 7.0 sparged N2, Day 17 (10 days storage at 40° C. followed by 7 days at 50° C.)
[15] = nominal pH 7.5, Day 17 (10 days storage at 40° C. followed by 7 days at 50° C.)
[16] = nominal pH 8.0, Day 17 (10 days storage at 40° C. followed by 7 days at 50° C.)
[17] = nominal pH 9.0, Day 17 (10 days storage at 40° C. followed by 7 days at 50° C.)

For `CN(C)CCc1c[nH]c2ccccc12.O=C(O)/C=C/C(=O)O` [SPL026, N,N-dimethyltryptamine (DMT) fumarate salt], the “alpha power (EEG) relative to placebo” value [1] is listed as “suppressed”, the “delta and theta power (EEG) relative to placebo” value [1] is listed as “normalized/increased” and the “pH following overnight storage” value ([2]; 20 mg/mL, ambient conditions, each solution) is listed as “no changes from the initial pH values”. The appearance of solution ([2]; 20 mg/mL, pH 8) was “hazy”, the appearance of solution ([2]; 20 mg/mL, pH 9 and pH 10) was “contained a precipitate” and the content after filtration ([2]; each solution, including high pH solutions where precipitate was present) was “approximately the same content”. The “dissolution in test formulation” value ([2]; nominal 20 mg/mL in Britton-Robinson buffer, only swirling and shaking) was “very soluble”, the pH ([3]; nominal pH 7.0) was 6.10 and the pH ([3]; nominal pH 9.0) was 7.70. The “drop in pH on preparation” value ([3]; pH 4 formulation) was 0.14 units, the “drop in pH on preparation” value ([3]; pH 9 formulation) was 1.29 units and the “related substances peaks at preparation” value ([4]; all formulations, […]) was “no related substances peaks were present”. For the same compound, the Total related substances [4, 9] was “ND (ND—<0.02 area of total peak area)”, the Total related substances [4, 10] was 0.07% and the Total related substances [4, 11] was 0.09%. For the same compound, the Total related substances [4, 12] was 0.10%, the Total related substances [4, 13] was 0.26% and the Total related substances ([4]; nominal pH 7.0 UV Light, on completion of light stressing (200 watt hours UVA, 0.6 million luxhours), fumarate salt) was 1.68%. The Total related substances [4, 14] was 0.05%, the Total related substances [4, 15] was 0.42% and the Total related substances [4, 16] was 0.58%. The Total related substances [4, 17] was 0.61%, the “number of related substances peaks” value ([4]; pH 4, after 17 days storage) was “no peaks” and the “robustness of nitrogen sparged formulation versus unsparged equivalent” value ([4]; pH 7, after 17 days storage) was “significantly more robust”. For the same compound, the “number of related substances peaks” value ([4]; pH 9, after 17 days storage) was 3, the “Individual related substance, percentage area of total peak area” value ([4]; relative retention time 0.54, nominal pH 7 UV light (200 watt hours UVA, 0.6 million luxhours)) was 0.05% and the “Individual related substance, percentage area of total peak area” value ([4]; relative retention time 0.62, nominal pH 7 UV light (200 watt hours UVA, 0.6 million luxhours)) was 0.17%. The “Individual related substance, percentage area of total peak area” value ([4]; relative retention time 0.64, nominal pH 7 UV light (200 watt hours UVA, 0.6 million luxhours)) was 0.54%, the “Individual related substance, percentage area of total peak area” value ([4]; relative retention time 0.73, nominal pH 7, Day 17 (10 days storage at 40° C., 7 days storage at 50° C.)) was 0.09% and the “Individual related substance, percentage area of total peak area” value ([4]; relative retention time 0.73, nominal pH 7 UV light (200 watt hours UVA, 0.6 million luxhours)) was 0.23%. For the same compound, the “Individual related substance, percentage area of total peak area” value ([4]; relative retention time 0.73, nominal pH 7.5, Day 17 (10 days storage at 40° C., 7 days storage at 50° C.)) was 0.14%, the “Individual related substance, percentage area of total peak area” value ([4]; relative retention time 0.73, nominal pH 8, Day 17 (10 days storage at 40° C., 7 days storage at 50° C.)) was 0.15% and the “Individual related substance, percentage area of total peak area” value ([4]; relative retention time 0.73, nominal pH 9, Day 17 (10 days storage at 40° C., 7 days storage at 50° C.)) was 0.12%. The “Individual related substance, percentage area of total peak area” value ([4]; relative retention time 0.74, nominal pH 7 UV light (200 watt hours UVA, 0.6 million luxhours)) was 0.15%, the “Individual related substance, percentage area of total peak area” value ([4]; relative retention time 0.77, nominal pH 7 UV light (200 watt hours UVA, 0.6 million luxhours)) was 0.06% and the “Individual related substance, percentage area of total peak area” value ([4]; relative retention time 0.91, nominal pH 7, Day 17 (10 days storage at 40° C., 7 days storage at 50° C.)) was 0.05%. The “Individual related substance, percentage area of total peak area” value ([4]; relative retention time 0.91, nominal pH 7.5, Day 17 (10 days storage at 40° C., 7 days storage at 50° C.)) was 0.07%, the “Individual related substance, percentage area of total peak area” value ([4]; relative retention time 0.91, nominal pH 8, Day 17 (10 days storage at 40° C., 7 days storage at 50° C.)) was 0.09% and the “Individual related substance, percentage area of total peak area” value ([4]; relative retention time 0.91, nominal pH 9, Day 17 (10 days storage at 40° C., 7 days storage at 50° C.)) was 0.11%. The “Individual related substance, percentage area of total peak area” value ([4]; relative retention time 0.95, nominal pH 8, Day 17 (10 days storage at 40° C., 7 days storage at 50° C.)) was 0.05%, the “Individual related substance, percentage area of total peak area” value ([4]; relative retention time 1.11, nominal pH 7.5, Day 17 (10 days storage at 40° C., 7 days storage at 50° C.)) was 0.12% and the “Individual related substance, percentage area of total peak area” value ([4]; relative retention time 1.11, nominal pH 8, Day 17 (10 days storage at 40° C., 7 days storage at 50° C.)) was 0.22%. For the same compound, the “Individual related substance, percentage area of total peak area” value ([4]; relative retention time 1.11, nominal pH 9, Day 17 (10 days storage at 40° C., 7 days storage at 50° C.)) was 0.12%, the “Individual related substance, percentage area of total peak area” value ([4]; relative retention time 1.17, nominal pH 7 UV light (200 watt hours UVA, 0.6 million luxhours)) was 0.18% and the “Individual related substance, percentage area of total peak area” value ([4]; relative retention time 1.20, nominal pH 7 UV light (200 watt hours UVA, 0.6 million luxhours)) was 0.13%. The “Individual related substance, percentage area of total peak area” value ([4]; relative retention time 1.56, nominal pH 5, Day 17 (10 days storage at 40° C., 7 days storage at 50° C.)) was 0.07%, the “Individual related substance, percentage area of total peak area” value ([4]; relative retention time 1.56, nominal pH 6, Day 17 (10 days storage at 40° C., 7 days storage at 50° C.)) was 0.09% and the “Individual related substance, percentage area of total peak area” value ([4]; relative retention time 1.56, nominal pH 6.5, Day 17 (10 days storage at 40° C., 7 days storage at 50° C.)) was 0.10%. The “Individual related substance, percentage area of total peak area” value ([4]; relative retention time 1.56, nominal pH 6.5 with N2 (sparged with nitrogen), Day 17 (10 days storage at 40° C., 7 days storage at 50° C.)) was 0.05%, the “Individual related substance, percentage area of total peak area” value ([4]; relative retention time 1.56, nominal pH 7, Day 17 (10 days storage at 40° C., 7 days storage at 50° C.)) was 0.12% and the “Individual related substance, percentage area of total peak area” value ([4]; relative retention time 1.56, nominal pH 7 UV light (200 watt hours UVA, 0.6 million luxhours)) was 0.10%. For the same compound, the “Individual related substance, percentage area of total peak area” value ([4]; relative retention time 1.56, nominal pH 7.5, Day 17 (10 days storage at 40° C., 7 days storage at 50° C.)) was 0.09%, the “Individual related substance, percentage area of total peak area” value ([4]; relative retention time 1.56, nominal pH 8, Day 17 (10 days storage at 40° C., 7 days storage at 50° C.)) was 0.07% and the “Individual related substance, percentage area of total peak area” value ([4]; relative retention time 1.56, nominal pH 9, Day 17 (10 days storage at 40° C., 7 days storage at 50° C.)) was 0.38%. The “concentration change on storage” value ([5]; all formulations pH 4 to 9 (nominal), Day 7 or Day 17) was “no significant concentration changes”, the Concentration ([5]; nominal pH 4.0, Day 7 (7 days storage at 40° C.)) was 2.57 mg/mL and the Concentration [5, 9] was 2.52 mg/mL. For the same compound, the Concentration ([5]; nominal pH 4.0, Initial) was 2.47 mg/mL, the Concentration ([5]; nominal pH 5.0, Day 7 (7 days storage at 40° C.)) was 2.48 mg/mL and the Concentration [5, 10] was 2.52 mg/mL. For the same compound, the Concentration ([5]; nominal pH 5.0, Initial) was 2.50 mg/mL, the Concentration ([5]; nominal pH 6.0, Day 7 (7 days storage at 40° C.)) was 2.56 mg/mL and the Concentration [5, 11] was 2.48 mg/mL. For the same compound, the Concentration ([5]; nominal pH 6.0, Initial) was 2.51 mg/mL, the Concentration ([5]; nominal pH 6.5, Day 7 (7 days storage at 40° C.)) was 2.59 mg/mL and the Concentration [5, 12] was 2.51 mg/mL. The Concentration ([5]; nominal pH 6.5, Initial) was 2.49 mg/mL, the Concentration ([5]; nominal pH 7.0, Day 7 (7 days storage at 40° C.)) was 2.54 mg/mL and the Concentration [5, 13] was 2.45 mg/mL. The Concentration ([5]; nominal pH 7.0, Initial) was 2.54 mg/mL, the Concentration ([5]; nominal pH 7.0 UV Light, Initial) was 2.54 mg/mL and the Concentration ([5]; nominal pH 7.0 UV Light, on completion of light stressing (200 watt hours UVA, 0.6 million luxhours)) was 2.26^a mg · mL^−1. The Concentration ([5]; nominal pH 7.0 sparged N2, Day 7 (7 days storage at 40° C.)) was 2.54 mg/mL, the Concentration [5, 14] was 2.51 mg/mL and the Concentration ([5]; nominal pH 7.0 sparged N2, Initial) was 2.54 mg/mL. The Concentration ([5]; nominal pH 7.5, Day 7 (7 days storage at 40° C.)) was 2.55 mg/mL, the Concentration [5, 15] was 2.46 mg/mL and the Concentration ([5]; nominal pH 7.5, Initial) was 2.50 mg/mL. For the same compound, the Concentration ([5]; nominal pH 8.0, Day 7 (7 days storage at 40° C.)) was 2.49 mg/mL, the Concentration [5, 16] was 2.42 mg/mL and the Concentration ([5]; nominal pH 8.0, Initial) was 2.49 mg/mL. For the same compound, the Concentration ([5]; nominal pH 9.0, Day 7 (7 days storage at 40° C.)) was 2.41 mg/mL, the Concentration [5, 17] was 2.46 mg/mL and the Concentration ([5]; nominal pH 9.0, Initial) was 2.47 mg/mL.

For `O=C(O)/C=C/C(=O)O.[2H]C([2H])([2H])N(C([2H])([2H])[2H])C([2H])([2H])Cc1c[nH]c2ccccc12` [SPL028viii, α,α,bis-deuterio-N,N-hexadeuterio-dimethyltryptamine fumarate salt], the “plasma levels at 30 mins compared with undeuterated DMT” value [6] was “significantly higher plasma levels” and the “Cmax compared with DMT (SPL026)” value [6] was “significantly higher”.

In the case of `CN(C)CCc1c[nH]c2ccccc12` [N,N-Dimethyltryptamine, N,N-dimethyltryptamine], the stability in solution [7] is listed as “degrades relatively quickly in solution” and the solubility [8] is listed as at least 90 mg/mL.

In the case of `O=C(O)/C=C/C(=O)O.[2H]C([2H])(Cc1c[nH]c2ccccc12)N(C)C` [SPL028i, α,α,-bis-deuterium-N,N-dimethyltryptamine fumarate salt], the “increase in AUC0-inf at 10 mg/kg dose compared to […] dose level” value ([6]; IM) is reported as 237%, the “plasma levels at 30 mins compared with undeuterated DMT” value [6] is reported as “significantly higher plasma levels” and the “Cmax compared with DMT (SPL026)” value [6] is reported as “significantly higher”.
